Measurements: PMC5218480 (PLoS ONE, 2017)

Tested on: MV-4-11 cells
Assay: Gene expression microarray analysis (Affymetrix PrimeView) and GSEA
Type: cell-based, human
Parameters: RFU PODN (11730768_x_at) / Fold change /veh PODN (11730768_x_at) / RFU LINC00158 (11744669_a_at) / Fold change /veh LINC00158 (11744669_a_at) / RFU DUSP10 (11751237_a_at) / Fold change /veh DUSP10 (11751237_a_at) / RFU ID3 (11757404_x_at) / Fold change /veh ID3 (11757404_x_at) / RFU PLEKHG5 (11737974_s_at) / Fold change /veh PLEKHG5 (11737974_s_at) / RFU LRRC4B (11730491_at) / Fold change /veh LRRC4B (11730491_at) / RFU GIMAP4 (11747438_a_at) / Fold change /veh GIMAP4 (11747438_a_at) / RFU KRT8 (11758183_x_at) / Fold change /veh KRT8 (11758183_x_at) / RFU CNN1 (11734310_a_at) / Fold change /veh CNN1 (11734310_a_at) / RFU VPS37D (11726825_at) / Fold change /veh VPS37D (11726825_at) / RFU C10orf10 (11716522_x_at) / Fold change /veh C10orf10 (11716522_x_at) / RFU KIR2DL2 /// KIR2DL4 /// KIR2DL5A /// KIR2DL5B /// KIR2DS1 /// KIR2DS2 /// KIR2DS3 /// KIR2DS4 /// KIR3DL3 /// KIR3DL3 /// KIR3DS1 (11738374_at) / Fold change /veh KIR2DL2 /// KIR2DL4 /// KIR2DL5A /// KIR2DL5B /// KIR2DS1 /// KIR2DS2 /// KIR2DS3 /// KIR2DS4 /// KIR3DL3 /// KIR3DL3 /// KIR3DS1 (11738374_at) / RFU C1QL1 (11718748_at) / Fold change /veh C1QL1 (11718748_at) / RFU TMPRSS4 (11747572_a_at) / Fold change /veh TMPRSS4 (11747572_a_at) / RFU HAMP (11756126_x_at) / Fold change /veh HAMP (11756126_x_at) / RFU RNFT2 (11725882_a_at) / Fold change /veh RNFT2 (11725882_a_at) / RFU NR4A2 (11747474_a_at) / Fold change /veh NR4A2 (11747474_a_at) / RFU ABCC12 (11746883_a_at) / Fold change /veh ABCC12 (11746883_a_at) / RFU TMEM136 (11760407_x_at) / Fold change /veh TMEM136 (11760407_x_at) / RFU CLDN22 /// WWC2 (11732394_at) / Fold change /veh CLDN22 /// WWC2 (11732394_at) / RFU HLA-DPB1 (11760878_x_at) / Fold change /veh HLA-DPB1 (11760878_x_at) / RFU SPINT1 (11716480_a_at) / Fold change /veh SPINT1 (11716480_a_at) / RFU GAP43 (11754022_s_at) / Fold change /veh GAP43 (11754022_s_at) / RFU A4GNT (11735810_at) / Fold change /veh A4GNT (11735810_at) / RFU PRB3 (11715151_x_at) / Fold change /veh PRB3 (11715151_x_at) / RFU TUBB4B (11761932_at) / Fold change /veh TUBB4B (11761932_at) / RFU CAPN14 (11732068_a_at) / Fold change /veh CAPN14 (11732068_a_at) / RFU TMCC2 (11721928_a_at) / Fold change /veh TMCC2 (11721928_a_at) / RFU IRGQ (11745062_a_at) / Fold change /veh IRGQ (11745062_a_at) / RFU FAM174B (11720279_a_at) / Fold change /veh FAM174B (11720279_a_at) / RFU TMPRSS4 (11748680_a_at) / Fold change /veh TMPRSS4 (11748680_a_at) / RFU FAM212B (11763350_a_at) / Fold change /veh FAM212B (11763350_a_at) / RFU PLEKHG5 (11743358_a_at) / Fold change /veh PLEKHG5 (11743358_a_at) / RFU ZSCAN30 (11745921_a_at) / Fold change /veh ZSCAN30 (11745921_a_at) / RFU CMKLR1 (11741424_a_at) / Fold change /veh CMKLR1 (11741424_a_at) / RFU LOC101060620 /// MAPK8IP1 (11723275_at) / Fold change /veh LOC101060620 /// MAPK8IP1 (11723275_at) / RFU SPTSSB (11747773_x_at) / Fold change /veh SPTSSB (11747773_x_at) / RFU PRSS12 (11739890_at) / Fold change /veh PRSS12 (11739890_at) / RFU BIN1 (11741810_x_at) / Fold change /veh BIN1 (11741810_x_at) / RFU WNT11 (11732464_a_at) / Fold change /veh WNT11 (11732464_a_at) / RFU C10orf10 (11716521_a_at) / Fold change /veh C10orf10 (11716521_a_at) / RFU C5orf56 (11738089_at) / Fold change /veh C5orf56 (11738089_at) / RFU CYB561 (11721691_x_at) / Fold change /veh CYB561 (11721691_x_at) / RFU ANKRD19P (11752326_a_at) / Fold change /veh ANKRD19P (11752326_a_at) / RFU OR2T12 /// OR2T33 /// OR2T8 (11738714_s_at) / Fold change /veh OR2T12 /// OR2T33 /// OR2T8 (11738714_s_at) / RFU VCAN (11748164_a_at) / Fold change /veh VCAN (11748164_a_at) / RFU JSRP1 (11732532_at) / Fold change /veh JSRP1 (11732532_at) / RFU KRTAP10-11 (11738290_x_at) / Fold change /veh KRTAP10-11 (11738290_x_at) / RFU MYO3A (11730013_a_at) / Fold change /veh MYO3A (11730013_a_at) / RFU EBF3 (11725865_a_at) / Fold change /veh EBF3 (11725865_a_at) / RFU CAMK2N1 (11719241_x_at) / Fold change /veh CAMK2N1 (11719241_x_at) / RFU C5orf56 (11738088_a_at) / Fold change /veh C5orf56 (11738088_a_at) / RFU OLFML3 (11715873_a_at) / Fold change /veh OLFML3 (11715873_a_at) / RFU LOC100653217 /// NTM (11731650_a_at) / Fold change /veh LOC100653217 /// NTM (11731650_a_at) / RFU MAPK11 (11762145_a_at) / Fold change /veh MAPK11 (11762145_a_at) / RFU FIZ1 (11724087_x_at) / Fold change /veh FIZ1 (11724087_x_at) / RFU OASL (11726364_x_at) / Fold change /veh OASL (11726364_x_at) / RFU SOX15 (11748057_x_at) / Fold change /veh SOX15 (11748057_x_at) / RFU CD79A (11719716_a_at) / Fold change /veh CD79A (11719716_a_at) / RFU HIST1H1D (11736915_at) / Fold change /veh HIST1H1D (11736915_at) / RFU CASKIN2 (11723855_a_at) / Fold change /veh CASKIN2 (11723855_a_at) / RFU LOC730098 (11760151_x_at) / Fold change /veh LOC730098 (11760151_x_at) / RFU OR4N2 (11742367_at) / Fold change /veh OR4N2 (11742367_at) / RFU PRRT2 (11749266_a_at) / Fold change /veh PRRT2 (11749266_a_at) / RFU SNX32 (11753110_a_at) / Fold change /veh SNX32 (11753110_a_at) / RFU CDHR5 (11726645_a_at) / Fold change /veh CDHR5 (11726645_a_at) / RFU RCAN1 (11760418_a_at) / Fold change /veh RCAN1 (11760418_a_at) / RFU FAM167A (11723789_a_at) / Fold change /veh FAM167A (11723789_a_at) / RFU FAM26E (11764081_at) / Fold change /veh FAM26E (11764081_at) / RFU ISYNA1 (11749810_s_at) / Fold change /veh ISYNA1 (11749810_s_at) / RFU ACY1 (11761880_at) / Fold change /veh ACY1 (11761880_at) / RFU 11764098_at / Fold change /veh 11764098_at / RFU SAMD14 (11745864_x_at) / Fold change /veh SAMD14 (11745864_x_at) / RFU NPB (11741838_a_at) / Fold change /veh NPB (11741838_a_at) / RFU TMPRSS6 (11731388_a_at) / Fold change /veh TMPRSS6 (11731388_a_at) / RFU KRTAP10-2 (11738614_at) / Fold change /veh KRTAP10-2 (11738614_at) / RFU ARHGAP8 /// PRR5-ARHGAP8 (11727945_x_at) / Fold change /veh ARHGAP8 /// PRR5-ARHGAP8 (11727945_x_at) / RFU KRTAP5-7 /// NADSYN1 (11734609_at) / Fold change /veh KRTAP5-7 /// NADSYN1 (11734609_at) / RFU RASL12 (11751679_a_at) / Fold change /veh RASL12 (11751679_a_at) / RFU CDKN2B (11736163_a_at) / Fold change /veh CDKN2B (11736163_a_at) / RFU PRF1 (11729649_at) / Fold change /veh PRF1 (11729649_at) / RFU, ZNF638 /// ZNF638-IT1 / Fold change vs veh, ZNF638 /// ZNF638-IT1 / RFU, PANK3 / Fold change vs veh, PANK3 / RFU, SH3YL1 / Fold change vs veh, SH3YL1 / RFU, ZEB2 / Fold change vs veh, ZEB2 / RFU, NRIP1 / Fold change vs veh, NRIP1 / RFU, PTTG1IP / Fold change vs veh, PTTG1IP / RFU, CAPN2 / Fold change vs veh, CAPN2 / RFU, MED14 / Fold change vs veh, MED14 / RFU, SNORA58 / Fold change vs veh, SNORA58 / RFU, C1orf63 / Fold change vs veh, C1orf63 / RFU, LRRFIP1 / Fold change vs veh, LRRFIP1 / RFU, NDUFAF7 / Fold change vs veh, NDUFAF7 / RFU, SLC12A2 / Fold change vs veh, SLC12A2 / RFU, IBTK / Fold change vs veh, IBTK / RFU, ESF1 / Fold change vs veh, ESF1 / Fold change vs veh, TMEM50B / RFU, TAOK1 / Fold change vs veh, TAOK1 / RFU, ACBD3 / Fold change vs veh, ACBD3 / RFU, TMA16 / Fold change vs veh, TMA16 / RFU, RWDD3 / Fold change vs veh, RWDD3 / RFU, BCAT1 / Fold change vs veh, BCAT1 / RFU, EDEM3 / Fold change vs veh, EDEM3 / RFU, TMEM33 / Fold change vs veh, TMEM33 / RFU, WDR75 / Fold change vs veh, WDR75 / RFU, AHCTF1 / Fold change vs veh, AHCTF1 / RFU, TFRC / Fold change vs veh, TFRC / RFU, ZDHHC17 / Fold change vs veh, ZDHHC17 / RFU, NOM1 / Fold change vs veh, NOM1 / RFU, ARL8B / Fold change vs veh, ARL8B / RFU, ZBTB11 / Fold change vs veh, ZBTB11 / RFU, TAMM41 / Fold change vs veh, TAMM41 / RFU, KIAA1704 /// LOC100996395 / Fold change vs veh, KIAA1704 /// LOC100996395 / RFU, ING1 / Fold change vs veh, ING1 / RFU, TRMT61B / Fold change vs veh, TRMT61B / RFU, FUBP3 / Fold change vs veh, FUBP3 / RFU, TP53 / Fold change vs veh, TP53 / RFU, TNKS2 / Fold change vs veh, TNKS2 / RFU, ZFP14 / Fold change vs veh, ZFP14 / RFU, ACTR2 / Fold change vs veh, ACTR2 / RFU, PPP3R1 / Fold change vs veh, PPP3R1 / RFU, PIK3R1 / Fold change vs veh, PIK3R1 / RFU, HNRNPA1 / Fold change vs veh, HNRNPA1 / RFU, RNF170 / Fold change vs veh, RNF170 / RFU, ZNF28 / Fold change vs veh, ZNF28 / RFU, RNGTT / Fold change vs veh, RNGTT / RFU, OGT / Fold change vs veh, OGT / RFU, BRD1 / Fold change vs veh, BRD1 / RFU, MARS / Fold change vs veh, MARS / RFU, ZNF655 / Fold change vs veh, ZNF655 / RFU, FAHD1 / Fold change vs veh, FAHD1 / RFU, BDP1 / Fold change vs veh, BDP1 / RFU, LRRCC1 / Fold change vs veh, LRRCC1 / RFU, ARID1A / Fold change vs veh, ARID1A / RFU, ZNF146 / Fold change vs veh, ZNF146 / RFU, ZNF330 / Fold change vs veh, ZNF330 / RFU, GPN3 / Fold change vs veh, GPN3 / RFU, C9orf123 / Fold change vs veh, C9orf123 / RFU, N4BP2L2 / Fold change vs veh, N4BP2L2 / RFU, ARFIP1 / Fold change vs veh, ARFIP1 / RFU, FAM179B / Fold change vs veh, FAM179B / RFU, BCL10 / Fold change vs veh, BCL10 / RFU, UHRF1BP1L / Fold change vs veh, UHRF1BP1L / RFU, BET1 / Fold change vs veh, BET1 / RFU, CNOT2 / Fold change vs veh, CNOT2 / RFU, ZNF268 / Fold change vs veh, ZNF268 / Fold change vs veh, ZNF507 / RFU, DGCR2 / Fold change vs veh, DGCR2 / RFU, WDSUB1 / Fold change vs veh, WDSUB1 / Fold change vs veh, HSP90B1 /// MIR3652 / RFU, ADSS / Fold change vs veh, ADSS / RFU, GK / Fold change vs veh, GK / RFU, ZNF148 / Fold change vs veh, ZNF148 / RFU, TAF9 / Fold change vs veh, TAF9 / RFU, SLC1A5 / Fold change vs veh, SLC1A5 / RFU, SLMO2 / Fold change vs veh, SLMO2 / RFU, ABCC4 / Fold change vs veh, ABCC4 / RFU, LOC101060439 /// RAP1B / Fold change vs veh, LOC101060439 /// RAP1B / RFU, RFX7 / Fold change vs veh, RFX7 / RFU, GTPBP10 / Fold change vs veh, GTPBP10 / RFU, CNEP1R1 / Fold change vs veh, CNEP1R1 / RFU, BIVM-ERCC5 /// ERCC5 / Fold change vs veh, BIVM-ERCC5 /// ERCC5 / RFU, ILF3 / Fold change vs veh, ILF3 / RFU 11762660_at / Fold change /veh 11762660_at / RFU VCAN (11757783_s_at) / Fold change /veh VCAN (11757783_s_at) / RFU DDX43 (11728927_at) / Fold change /veh DDX43 (11728927_at) / RFU KRT8 (11758188_x_at) / Fold change /veh KRT8 (11758188_x_at) / RFU NKD1 (11759106_at) / Fold change /veh NKD1 (11759106_at) / RFU SRD5A1 (11742802_a_at) / Fold change /veh SRD5A1 (11742802_a_at) / RFU TPSAB1 /// TPSB2 (11721975_s_at) / Fold change /veh TPSAB1 /// TPSB2 (11721975_s_at) / RFU GSTM3 (11746129_a_at) / Fold change /veh GSTM3 (11746129_a_at) / RFU IL23R (11737362_x_at) / Fold change /veh IL23R (11737362_x_at) / RFU TMEM51 (11727254_a_at) / Fold change /veh TMEM51 (11727254_a_at) / RFU PIWIL2 (11732686_x_at) / Fold change /veh PIWIL2 (11732686_x_at) / RFU ORM1 (11744905_x_at) / Fold change /veh ORM1 (11744905_x_at) / RFU CCDC152 (11743942_at) / Fold change /veh CCDC152 (11743942_at) / RFU ECM1 (11717891_a_at) / Fold change /veh ECM1 (11717891_a_at) / RFU IL23R (11748794_a_at) / Fold change /veh IL23R (11748794_a_at) / RFU TNFAIP8L3 (11732012_x_at) / Fold change /veh TNFAIP8L3 (11732012_x_at) / RFU MBOAT4 (11741988_at) / Fold change /veh MBOAT4 (11741988_at) / RFU 11764193_at / Fold change /veh 11764193_at / RFU TMEM53 (11763286_at) / Fold change /veh TMEM53 (11763286_at) / RFU MAGEB2 (11727129_at) / Fold change /veh MAGEB2 (11727129_at) / RFU TMEM200A (11744735_a_at) / Fold change /veh TMEM200A (11744735_a_at) / RFU CCDC152 (11751479_a_at) / Fold change /veh CCDC152 (11751479_a_at) / RFU FAM211A (11726209_a_at) / Fold change /veh FAM211A (11726209_a_at) / RFU RGS16 (11746705_a_at) / Fold change /veh RGS16 (11746705_a_at) / RFU VCAN (11755009_s_at) / Fold change /veh VCAN (11755009_s_at) / RFU RHOB (11743442_s_at) / Fold change /veh RHOB (11743442_s_at) / RFU RGS16 (11720943_a_at) / Fold change /veh RGS16 (11720943_a_at) / RFU RGS16 (11720944_at) / Fold change /veh RGS16 (11720944_at) / RFU, VPS4B / Fold change vs veh, VPS4B / RFU, CREB1 / Fold change vs veh, CREB1 / RFU, DNAJC13 / Fold change vs veh, DNAJC13 / RFU, GNAQ / Fold change vs veh, GNAQ / RFU, CDK5R1 / Fold change vs veh, CDK5R1 / RFU, ZRANB3 / Fold change vs veh, ZRANB3 / RFU, CUL4A / Fold change vs veh, CUL4A / RFU, CCNY / Fold change vs veh, CCNY / RFU, UFL1 / Fold change vs veh, UFL1 / RFU, COG3 / Fold change vs veh, COG3 / RFU, DIAPH2 / Fold change vs veh, DIAPH2 / RFU, SKA2 / Fold change vs veh, SKA2 / RFU, AFF3 / Fold change vs veh, AFF3 / RFU, LMF1 / Fold change vs veh, LMF1 / RFU, IPO11 / Fold change vs veh, IPO11 / RFU, DFFB / Fold change vs veh, DFFB / RFU, FOXP1 / Fold change vs veh, FOXP1 / RFU, CARD8 / Fold change vs veh, CARD8 / RFU, STRN3 / Fold change vs veh, STRN3 / RFU, ADK / Fold change vs veh, ADK / RFU, RASSF2 / Fold change vs veh, RASSF2 / RFU, WIPF1 / Fold change vs veh, WIPF1 / RFU, LARP1B / Fold change vs veh, LARP1B / RFU, RASA1 / Fold change vs veh, RASA1 / RFU, RB1 / Fold change vs veh, RB1 / RFU, PPFIA1 / Fold change vs veh, PPFIA1 / RFU, MAT2A / Fold change vs veh, MAT2A / RFU, CCT5 / Fold change vs veh, CCT5 / RFU, WDR92 / Fold change vs veh, WDR92 / RFU, CUX1 / Fold change vs veh, CUX1 / RFU, TTC7A / Fold change vs veh, TTC7A / RFU, TMEM135 / Fold change vs veh, TMEM135 / RFU, DEPTOR / Fold change vs veh, DEPTOR / RFU, CPM / Fold change vs veh, CPM / RFU, DNAJB6 / Fold change vs veh, DNAJB6 / RFU, CACNA2D3 / Fold change vs veh, CACNA2D3 / RFU, DTX4 / Fold change vs veh, DTX4 / RFU, TFCP2 / Fold change vs veh, TFCP2 / RFU, GMCL1 /// GMCL1P1 / Fold change vs veh, GMCL1 /// GMCL1P1 / RFU, AEBP2 / Fold change vs veh, AEBP2 / RFU, SNHG1 /// SNORD22 /// SNORD25 /// SNORD26 /// SNORD27 /// SNORD28 /// SNORD29 /// SNORD31 / Fold change vs veh, SNHG1 /// SNORD22 /// SNORD25 /// SNORD26 /// SNORD27 /// SNORD28 /// SNORD29 /// SNORD31 / Fold change (Aza/veh), C12orf56 (ProbeSet 11735607_a_at) / Fold change (ACY-1035/veh), C12orf56 (ProbeSet 11735607_a_at) / Fold change (Aza/veh), FGFR1OP (ProbeSet 11751329_s_at) / Fold change (ACY-1035/veh), FGFR1OP (ProbeSet 11751329_s_at) / Fold change (Aza/veh), VPS36 (ProbeSet 11739960_a_at) / Fold change (ACY-1035/veh), VPS36 (ProbeSet 11739960_a_at) / RFU SYPL1 (11715823_x_at) / Fold change /veh SYPL1 (11715823_x_at) / RFU IGFBP7 (11715501_s_at) / Fold change /veh IGFBP7 (11715501_s_at) / RFU REEP3 (11722064_at) / Fold change /veh REEP3 (11722064_at) / RFU IGLL1 (11728026_x_at) / Fold change /veh IGLL1 (11728026_x_at): dose or concentration left out as unconfirmed
Settings: ProbeSet 11718977_a_at; LIST B

Question: With `Nc1ccc(-c2cccs2)cc1NC(=O)c1ccc2c(c1)cc(C1CC1)n2CCN1CCOCC1` [ACY-1035] as the molecule, how does the “RFU, CAPN2” value read?
Answer: Its value is 162.48 RFU.
